Laboratory results: ChEMBL document CHEMBL1201862, “PubChem BioAssay data set” (2004)
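Tested at 5 concentrations; 48 h exposure; 96-well plates; endpoints linearly interpolated, else capped at highest concentration. GI50 is the concentration that inhibits growth by half.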 Activity calls are given as the source filed them. Rule as the data show it: active = GI50 up to about 1.1 µM and inactive = higher.

How the values were obtained:
Assay in all cases: NCI-60 cell line screen, 48 h
786-0 = system: 786-0
A498 = system: A498
A549 = system: A549
ACHN = system: ACHN
BT-549 = system: BT-549
CAKI-1 = system: CAKI-1
COLO 205 = system: COLO 205
EKVX = system: EKVX
HCT-116 = system: HCT-116
HCT-15 = system: HCT-15
HOP-62 = system: HOP-62
HOP-92 = system: HOP-92
HT-29 = system: HT-29
Hs-578T = system: Hs-578T
IGROV-1 = system: IGROV-1
K562 = system: K562
KM12 = system: KM12
LOX IMVI = system: LOX IMVI
M14 = system: M14
MCF7 = system: MCF7
MDA-MB-231 = system: MDA-MB-231
MDA-MB-435 = system: MDA-MB-435
MDA-N = system: MDA-N
MOLT-4 = system: MOLT-4
Malme-3M = system: Malme-3M
NCI-H226 = system: NCI-H226
NCI-H23 = system: NCI-H23
NCI-H460 = system: NCI-H460
NCI-H522 = system: NCI-H522
NCI/ADR-RES = system: NCI/ADR-RES
OVCAR-3 = system: OVCAR-3
OVCAR-4 = system: OVCAR-4
OVCAR-5 = system: OVCAR-5
OVCAR-8 = system: OVCAR-8
PC-3 = system: PC-3
RPMI-8226 = system: RPMI-8226
RXF 393 = system: RXF 393
SF-268 = system: SF-268
SF-295 = system: SF-295
SF-539 = system: SF-539
SK-MEL-28 = system: SK-MEL-28
SK-MEL-2 = system: SK-MEL-2
SK-MEL-5 = system: SK-MEL-5
SK-OV-3 = system: SK-OV-3
SN12C = system: SN12C
SNB-19 = system: SNB-19
SNB-75 = system: SNB-75
SR = system: SR
SW-620 = system: SW-620
T47D = system: T47D
TK-10 = system: TK-10
U-251 = system: U-251
UACC-257 = system: UACC-257
UACC-62 = system: UACC-62
UO-31 = system: UO-31
CCRF-CEM = system: CCRF-CEM
DU-145 = system: DU-145
HL-60 = system: HL-60

**Q.** Which results are given for `c1ccc(CNCCN2CCNCC2)nc1`?
**A.** GI50 (786-0): > 100 µM (inactive); GI50 (A498): > 100 µM (inactive); GI50 (A549): > 100 µM (inactive); GI50 (ACHN): > 100 µM (inactive); GI50 (BT-549): > 100 µM (inactive); GI50 (CAKI-1): > 100 µM (inactive); GI50 (COLO 205): > 100 µM (inactive); GI50 (EKVX): > 100 µM (inactive); GI50 (HCT-116): > 100 µM (inactive); GI50 (HCT-15): > 100 µM; GI50 (HOP-62): > 100 µM (inactive); GI50 (HOP-92): > 100 µM (inactive); GI50 (HT-29): > 100 µM (inactive); GI50 (Hs-578T): > 100 µM (inactive); GI50 (IGROV-1): > 100 µM (inactive); GI50 (K562): > 100 µM (inactive); GI50 (KM12): > 100 µM (inactive); GI50 (LOX IMVI): > 100 µM (inactive); GI50 (M14): > 100 µM (inactive); GI50 (MCF7): > 100 µM (inactive); GI50 (MDA-MB-231): > 100 µM (inactive); GI50 (MDA-MB-435): > 100 µM (inactive); GI50 (MDA-N): > 100 µM (inactive); GI50 (MOLT-4): > 100 µM (inactive); GI50 (Malme-3M): > 100 µM (inactive); GI50 (NCI-H226): > 100 µM (inactive); GI50 (NCI-H23): > 100 µM (inactive); GI50 (NCI-H460): > 100 µM (inactive); GI50 (NCI-H522): > 100 µM (inactive); GI50 (NCI/ADR-RES): > 100 µM (inactive); GI50 (OVCAR-3): > 100 µM (inactive); GI50 (OVCAR-4): > 100 µM (inactive); GI50 (OVCAR-5): > 100 µM (inactive); GI50 (OVCAR-8): > 100 µM (inactive); GI50 (PC-3): > 100 µM (inactive); GI50 (RPMI-8226): > 100 µM (inactive); GI50 (RXF 393): > 100 µM (inactive); GI50 (SF-268): > 100 µM (inactive); GI50 (SF-295): > 100 µM (inactive); GI50 (SF-539): > 100 µM (inactive); GI50 (SK-MEL-28): > 100 µM (inactive); GI50 (SK-MEL-2): > 100 µM (inactive); GI50 (SK-MEL-5): > 100 µM (inactive); GI50 (SK-OV-3): > 100 µM (inactive); GI50 (SN12C): > 100 µM (inactive); GI50 (SNB-19): > 100 µM (inactive); GI50 (SNB-75): 52 µM (inactive); GI50 (SR): > 100 µM (inactive); GI50 (SW-620): > 100 µM (inactive); GI50 (T47D): > 100 µM (inactive); GI50 (TK-10): > 100 µM (inactive); GI50 (U-251): > 100 µM (inactive); GI50 (UACC-257): > 100 µM (inactive); GI50 (UACC-62): > 100 µM (inactive); GI50 (UO-31): > 100 µM (inactive)

**Q.** What does the source list for `COC1OC(Cc2nnc(C)o2)C(OCc2ccccc2)C(OCc2ccccc2)C1OCc1ccccc1` (centres undefined)?
**A.** GI50 (786-0): 40.6 µM (inactive); GI50 (A498): 50.9 µM (inactive); GI50 (A549): 27.2 µM (inactive); GI50 (ACHN): 26.6 µM (inactive); GI50 (BT-549): 25.7 µM (inactive); GI50 (CAKI-1): 35.6 µM (inactive); GI50 (CCRF-CEM): 21.7 µM (inactive); GI50 (COLO 205): 20.7 µM (inactive); GI50 (DU-145): 40.8 µM (inactive); GI50 (EKVX): 12.7 µM (inactive); GI50 (HCT-116): 37.4 µM (inactive); GI50 (HCT-15): 35.9 µM; GI50 (HL-60): 26.2 µM (inactive); GI50 (HOP-62): 52.1 µM (inactive); GI50 (HOP-92): 35.3 µM (inactive); GI50 (HT-29): 26.4 µM (inactive); GI50 (Hs-578T): 43 µM (inactive); GI50 (IGROV-1): 13.9 µM (inactive); GI50 (K562): 20.9 µM (inactive); GI50 (KM12): 15.8 µM (inactive); GI50 (LOX IMVI): 20.1 µM (inactive); GI50 (M14): 31 µM (inactive); GI50 (MCF7): 20.3 µM (inactive); GI50 (MDA-MB-231): 36.1 µM (inactive); GI50 (MDA-MB-435): 19.7 µM (inactive); GI50 (MOLT-4): 16 µM (inactive); GI50 (Malme-3M): 15.5 µM (inactive); GI50 (NCI-H226): 29.5 µM (inactive); GI50 (NCI-H23): 19.9 µM (inactive); GI50 (NCI-H460): 26.4 µM (inactive); GI50 (NCI-H522): 19.4 µM (inactive); GI50 (NCI/ADR-RES): 24.3 µM (inactive); GI50 (OVCAR-3): 18.3 µM (inactive); GI50 (OVCAR-4): 41.4 µM (inactive); GI50 (OVCAR-5): 41.2 µM (inactive); GI50 (RPMI-8226): 32.4 µM (inactive); GI50 (RXF 393): 18.3 µM (inactive); GI50 (SF-268): 21.5 µM (inactive); GI50 (SF-295): 18.9 µM (inactive); GI50 (SF-539): 38.3 µM (inactive); GI50 (SK-MEL-28): 22.9 µM (inactive); GI50 (SK-MEL-2): 14.5 µM (inactive); GI50 (SK-MEL-5): 16.3 µM (inactive); GI50 (SK-OV-3): 77.4 µM (inactive); GI50 (SN12C): 28.3 µM (inactive); GI50 (SNB-19): 57.8 µM (inactive); GI50 (SNB-75): 74.3 µM (inactive); GI50 (SR): 13.2 µM (inactive); GI50 (SW-620): 40.1 µM (inactive); GI50 (T47D): 52.5 µM (inactive); GI50 (U-251): 38.4 µM (inactive); GI50 (UACC-257): 17.2 µM (inactive); GI50 (UACC-62): 17 µM (inactive); GI50 (UO-31): 33.1 µM (inactive)
